The term IC50 denotes the point on the concentration scale where inhibition reaches its midpoint.

Bridge positions count the residues as written; N and C are the ends. Peptide text beside a SMILES is read from it. Bounds are passed on as bounds.

Experiment [1] relates to avian influenza virus H9N2. In kind it is cell-based.
In a further experiment the test system is AIV H9N2. Further details: species or system avian influenza virus H9N2. The note with it: in vivo.
Another experiment has as its target Streptavidin (Streptomyces avidinii, UniProt P22629). It counts as binding.
Experiment [2] has as its target avian influenza virus (AIV) subtype H9N2, purified whole virus particles. As to the kind of experiment: cell-based or functional assay.

Chain of Streptavidin (P22629 25-183, species assumed): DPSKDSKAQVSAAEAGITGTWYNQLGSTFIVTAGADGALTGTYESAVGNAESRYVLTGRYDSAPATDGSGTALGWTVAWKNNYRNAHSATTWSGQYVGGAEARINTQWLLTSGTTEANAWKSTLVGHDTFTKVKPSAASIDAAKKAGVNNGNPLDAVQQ

`C[C@@H](O)[C@@H]1NC(=O)[C@H](CCCCN)NC(=O)[C@H](CO)NC(=O)[C@H](CCCNC(=N)N)NC(=O)[C@H](Cc2ccccc2)NC(=O)[C@H](CC(=O)O)NC(=O)[C@H](CC(N)=O)NC(=O)[C@@H](N)CSSC[C@@H](C(=O)O)NC1=O` [CNDFRSKTC] (H-CNDFRSKTC-OH; disulfide 1-9 (inferred); N-terminus and C-terminus assumed): in experiment [1], the “Agglutination of RBC (+AIV 32 HAU; 50 μl)” value is “No and Yes”; the “Agglutination of RBC (−AIV 32 HAU; 50 μl)” value was “No”. Moreover, the “AIV titer in the allantoic fluid (haemagglutination titer)” value in the experiment on AIV H9N2 was “reduced the AIV titer”. The IC50 in the experiment with AIV H9N2 (read-out: IC50, inhibition of propagation of AIV H9N2) is below 100 µM.
Consider GLYNHPQ, for which, at Streptavidin, the “Frequency of sequences (%)” value is recorded as 27%.
HPQFLSL: the “Frequency of sequences (%)” value at Streptavidin stood at 55%.
For NDFRSKT, in experiment [1], the “Agglutination of RBC (+AIV 32 HAU; 50 μl)” value is “No and Yes”; the “Agglutination of RBC (−AIV 32 HAU; 50 μl)” value is on record as “No”. Moreover, the “AIV titer in the allantoic fluid (haemagglutination titer)” value in the experiment with AIV H9N2 is “reduced the AIV titer”.
In the case of synthetic linear peptide NDFRSKT, the IC50 in experiment [2] is below 100 µM.

(Values after patent US8883480B2 (priority 2008, dated 2014).)
